# Measurements reported in publication PMC6628362, “A New Strategy for Glioblastoma Treatment: In Vitro and In Vivo Preclinical Characterization of Si306, a Pyrazolo[3,4-d]Pyrimidine Dual Src/P-Glycoprotein Inhibitor” (Cancers, 2019).
# Read-outs that look alike come from different tables or passages of the source.
# Experiments:
# [1] = Brain and tissue distribution of Si306 in mice; format: in vivo, BALB/C mice; conditions: for Tmax / Kp / AUC(0-inf) / Cmax / half-life / AUC(0-t) / MRT inf: male, BALB/C, mouse; for Tmax / AUC(0-inf) / Cmax / half-life / AUC(0-t) / MRT inf: brain; for Kp: brain/plasma, read-out: AUC brain to plasma ratio; for AUC(0-t): read-out: AUC 0→24 h; for MRT inf: read-out: MRT 0→∞
# Text: Naive male BALB/C mice (weight 20 ± 2 g) were ordered from Charles River (Milan, Italy). All animals were pathogen free and approximately 4–6 weeks old when they arrived. The adaption period to the environment was not less than seven days. All the procedures used on animals in this study were approved by Institutional Animal Use and Care Committee at Università Cattolica del S. Cuore, Rome and Università degli Studi di Siena and authorized by the Italian Ministry of Health, according to Legislative Decree 116/92, which implemented the European Directive 86/609/EEC on laboratory animal protection in Italy. Methods for all the conducted experiments were performed in accordance with regulations, standards and guidelines of the Animal Use and Care Committee of Università Cattolica del S. Cuore, Rome and Università degli Studi di Siena.
# Si306 was dissolved in a mixture of Tween80 (10% v/v), benzyl alcohol (1% v/v) and a 10 mM solution of citric acid. The compound was administered intravenously as a single dose of 25 mg/kg in 200 μL of volume. At several time points (0.08, 0.25, 0.5, 1, 2, 4, 8, 24 h), after drug administration, mice were treated i.p. with heparin (5000 U/kg) and sacrificed under CO2. Five animals were used for each time point. Blood, brain, liver and kidneys were collected for the following quantitative analysis. Approximately 500–600 μL of blood was collected from each animal and transferred to a tube containing 10 μL of heparin and mixed briefly.
# For the oral PK studies, mice received a single dose of 50 mg/kg of Si306 (dissolved in the same vehicle used for i.v. studies) in 400 μL of final volume by gavage. At nine time-points (0.25, 0.5, 1, 1.5, 2, 3, 4, 8, 24 h) after administration, mice were sacrificed under CO2. Blood and organs were collected and analyzed by LC-MS. The pharmacokinetic parameters, including area under concentration-time curve (AUC), maximum plasma concentration (Cmax), half-time (t1/2), apparent volume of distribution (V), plasma clearance (CL) and mean residence time (MRT), were calculated by non-compartmental analysis using PKSolver software (ver. 1.0, Nanjing, China).
# Blood samples were centrifuged at 5000 rpm for 20 min to separate the plasma fraction, which was subsequently collected in a test tube. Acetonitrile (1 mL, with Si34 as internal standard at the concentration of 5 μg/mL) was added to each sample to denature proteins. Samples were centrifuged at 5000 rpm for 20 min, and the supernatant was recovered, dried under vacuum, solubilized again in methanol (100 μL), and analyzed. Brain and the other organs were homogenized using a T10 basic ULTRA-TURRAX® homogenizer (Bioclass, Pistoia, Italy); in order to extract the compound from the tissue, acetonitrile internal standard solution was added, and the homogenate was centrifuged at 5000 rpm for 20 min. The supernatant was recovered, filtered and analyzed by LC-MS. The quantification of each compound was performed by reference to the appropriate calibration curve. Representative LC-MS chromatograms for Si306 and for Si34 are reported in Figure S2 and Figure S3 respectively.
# [2] = test system: U87 cells; set-up: method as in PMID 28650650; conditions: single oral treatment, mice orthotopically injected with U87 cells; cited from earlier work
# [3] = test system: BT-138; assay: Cell viability, BT-138 (Table S1); format: cell-based; conditions: BT-138, 24 h
# Description: 1. Cell Growth Inhibition by Dasatinib, Si306 and Pro-Si306
# GB cell lines BT138, T98G and A172 were treated with Si306 and pro-Si306 at concentrations ranging from 1 to 100 µM, or with DMSO as a control. Cell viability was evaluated 72 h after treatment for T98G and A172 cell lines and after 24 h for BT-138. In table S1 the IC50 values are reported.
# Table S1. Sensitivity of glioblastoma multiforme (GBM) cells to Si306 and pro-Si306 expressed as IC50 […]
# Figure S1. Rho 123 accumulation in U87-TxR cells treated with increasing concentrations of TQ (A), Dex-VER (B), Si306 (C) and pro-Si306 (D).
# (1 picture or pasted object on this page, not shown here)
# [4] = test system: LN-229; assay: MTT cell growth inhibition, LN-229; format: cell-based, Human; conditions: LN-229, MTT, n = 3
# [5] = Acute toxicity study in mice (single i.v. dose); format: in vivo, BALB/c mice
# Description: Male BALB/c mice (20 ± 2) g, supplied by Harlan Italy S.r.l., San Pietro al Natisone, Udine, Italy, were acclimated at 25 °C and 55% of humidity under natural light/dark conditions for 1 week before the proposed experiments. Animal welfare was routinely checked by veterinarians of the Service for Animal Welfare and all efforts were made to minimize suffering.
# The study design includes three groups of five mice each. All mice were injected with compound through the tail vein in a single systemic dose (0.05 mL per dose). The test compound was solubilized in PBS/25% DMSO. The first group was treated with dose levels of 50 mg/kg; the second received a high-dose level of 100 mg/kg, whereas the third was inoculated with the only vehicle as the control. All mice were monitored for survival and the presence of any drug-related adverse effect (local signs of inflammation, weight loss, diarrhea, and behavioral alterations) throughout the experimental period. Mice were sacrificed 4 days after treatment, and liver, kidney, and brain tissue specimens were aseptically removed, fixed in 4% formaldehyde solution, and processed for paraffin embedding. Histopathological changes in tissue specimens were evaluated in 10 randomly selected tissue sections from each organ for all the samples. Sections cut at 2 μm were stained with hematoxylin and eosin (H&E) and analyzed by a pathologist with an optical microscope (Leica, Wetzlar, Germany).
smiles,measurement,setting,value
ClC(Cn1ncc2c(Nc3cccc(Br)c3)nc(SCCN3CCOCC3)nc21)c1ccccc1 (stereo not shown) [Si306],maximum concentration into the brain,"[1]; i.v., 25 mg/kg",2.94 µg/g
same,Tmax,"[1]; iv, 25 mg/kg, i.v., 25 mg/kg, read-out: Tmax",4.8 min
same,Tmax,"[1]; iv, 25 mg/kg, i.v., 25 mg/kg, read-out: time of maximum concentration into the brain (converted)",5 min
same,Tmax,"[1]; po, 50 mg/kg, p.o., 50 mg/kg, read-out: Tmax",30 min
same,Tmax,"[1]; po, 50 mg/kg, p.o., 50 mg/kg, read-out: time of maximum concentration into the brain (converted)",30 min
same,Kp,"[1]; iv, 25 mg/kg",0.095
same,Kp,"[1]; oral route, 50 mg/kg",1.19
same,AUC(0-inf),"[1]; iv, 25 mg/kg",2150 ng·h/mL
same,Cmax,"[1]; iv, 25 mg/kg",2940 ng/g
same,half-life,"[1]; iv, 25 mg/kg",158 min
same,AUC(0-t),"[1]; iv, i.v., 25 mg/kg",2140 ng·h/mL
same,MRT inf,"[1]; iv, i.v., 25 mg/kg",88.8 min
same,AUC(0-inf),"[1]; po, 50 mg/kg",18000 ng·h/mL
same,Cmax,"[1]; po, 50 mg/kg",10600 ng/g
same,half-life,"[1]; po, 50 mg/kg",126 min
same,AUC(0-t),"[1]; po, p.o., 50 mg/kg",18000 ng·h/mL
same,MRT inf,"[1]; po, p.o., 50 mg/kg",72 min
same,"AUC brain/plasma, fold higher p.o. with respect to i.v.",[1]; p.o. 50 mg/kg vs i.v. 25 mg/kg,12 fold
same,maximum concentration into the brain,"[1]; p.o., 50 mg/kg",10.65 µg/g
same,prolongation of survival,[2],30%
same,IC50,[3],72.6 ± 6.21 µM
same,IC50,"[4]; Homo sapiens, LN-229, 72 h",8 µM
same,IC50,[4]; 72 h,8.01 ± 0.574 µM
same,"microscopic alterations in liver, kidney and central nervous system","[5]; 50 and 100 mg/kg i.v., 4 days after treatment, H&E",No microscopic alterations
same,treatment-related mortality,"[5]; limit test dose 100 mg/kg, i.v., four days observation",did not produce treatment-related mortality
same,LD50 at 4 days,"[5]; male, BALB/c, mouse, in vivo, iv, single dose, mice",> 100 mg/kg
same,"behavior (apathy, hyperactivity, vomiting, diarrhea, morbidity)","[5]; up to 100 mg/kg i.v., four days observation",no significant changes occurred in the behavior
same,body weights,"[5]; up to 100 mg/kg i.v., recorded daily",no significant changes
